Data taken from patent US20230295201A1 (Gilead Sciences, Inc., priority 2020, published 2023).
Where two headings read alike, the source gives them in different places.

What was measured:
Type in all cases: cell-based
DENV2 replicon = experiment: DENV-2 Huh-7 Rep EC50 (replicon luminescence); details: read-out: DENV-2 Huh-7 Rep EC50
Method in brief: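 Huh-7 cells carrying a DENV2 replicon, 5,000 cells/well, were incubated with dosed compounds for 48 h at 37° C. EnduRen live-cell substrate was added 1.5 h before luminescence reading. EC50 came from dose-response against DMSO-only wells.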

[1] = test system: Dengue serotype 2 New Guinea C (NGC) strain; experiment: DENV-2 Huh-7 EC50 (qPCR in Huh7 cells)
Procedure: Huh7 (Human hepatocarcinoma 7) cells were maintained in 10% FCS-containing DMEM complete media. On the day of the assay, cells were trypsinized (0.1% Trypsin-EDTA), washed and infected for 2 hours in serum-free DMEM with Dengue serotype 2 New Guinea C (NGC) strain at MOI=0.1 with gentle agitation at 37° C. After 2 hours, cells were washed with serum-free media and suspended in 10% FCS-containing DMEM (Gibco, supplemented with sodium pyruvate, NEAA, Penicillin-Streptomycin). 10^5 cells were plated in triplicate in 96-well plates with compounds dispensed at graded doses (Hewlett-Packard D300 Digital Dispenser). All wells were normalized to 0.25% DMSO. At 48 hours, cells were washed with 1×PBS and all supernatants removed. Total RNA was extracted using RNEasy 96 plates (Qiagen) and used to generate first-strand cDNA using XLT cDNA 5×Supermix (QuantaBio). cDNA was used as a template in a Taqman qPCR duplex reaction specific to DENV2 viral and GAPDH gene expression. EC50 values were determined using Prism Graphpad software, with normalization to a positive control and no compound negative control wells.

HRV16 = HRV16 HELA EC50 (cytopathic effect in H1-HeLa cells)
Method in brief: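 H1-HeLa cells seeded one day before, given 3-fold serial compound dilutions in triplicate just prior to infection with pre-titrated virus. Incubated 96 h at 33 °C/5% CO2; protection from cytopathic effect read as viability by CellTiter-Glo luminescence, normalised to infected untreated (0%) and uninfected (100%) controls.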

RSV strain A2 = experiment: RSV HEp-2 EC50 (infectious cytopathic cell protection assay); details: read-out: RSV HEp-2 EC50
Method in brief: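 HEp-2 cells mixed with titered RSV A2 at 50,000 cells/ml were added to plates holding 3-fold serial compound dilutions in DMSO, then incubated 4 days at 37° C. Cytoprotection was read as cell viability by CellTiter-Glo luminescence and converted to percent inhibition against 0% and 100% inhibition controls.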

RSV A2 = experiment: RSV NHBE EC50 (RSV A2 antiviral assay in normal human bronchial epithelial cells); details: read-out: RSV NHBE EC50
[2] = Dengue virus, DENV2, Huh-7, 48 h, Huh-7 replicon cells, 48 hours
[3] = Dengue virus, DENV2, Huh-7, 48 h
[4] = 96 h, H1-HeLa cells, 33° C., read-out: HRV16 HELA EC50
[5] = human respiratory syncytial virus, HEp-2, 96 h, HEp-2 cells, RSV A2, 4 days
[6] = human respiratory syncytial virus, NHBE, 96 h, NHBE cells, RSV A2, 4 days
[7] = H1-HeLa cells, 96 h, 33° C.; read-out: HRV16 HELA EC50

SMILES	EC50 (DENV2 replicon; [2])	EC50 [1, 3]	EC50 (RSV strain A2; [5])	EC50 (DENV2 replicon; Huh-7 replicon cells, 48 hours)	EC50 ([1]; 48 hours)	EC50 (HRV16; [7])	EC50 (RSV strain A2; HEp-2 cells, RSV A2, 4 days)	EC50 (RSV A2; NHBE cells, RSV A2, 4 days)	other results
CC(C)(C)C(=O)OCCNP(=O)(OC[C@@]1(C#N)O[C@@H](c2ccc3c(N)ncnn23)[C@H](O)[C@@H]1O)Oc1ccccc1 (mixture of isomers) [Example 11, 2-(((((2R,3S,4R,5S)-5-(4-aminopyrrolo[2,1-f][1,2,4]triazin-7-yl)-2-cyano-3,4-dihydroxytetrahydrofuran-2-yl)methoxy)(phenoxy)phosphoryl)amino)ethyl pivalate]	> 50 µM	3.5 µM	0.269 µM	–	–	–	–	–	EC50 (HRV16; [4]): 1.2 µM; EC50 (RSV A2; [6]): 0.054 µM
CCOC(=O)[C@H](C)NP(=O)(OC[C@@]1(C#N)O[C@@H](c2ccc3c(N)ncnn23)[C@H](O)[C@@H]1O)Oc1ccc(C(C)(C)C)cc1 (mixture of isomers) [Example 263, Ethyl ((((2R,3S,4R,5S)-5-(4-aminopyrrolo[2,1-f][1,2,4]triazin-7-yl)-2-cyano-3,4-dihydroxytetrahydrofuran-2-yl)methoxy)(4-(tert-butyl)phenoxy)phosphoryl)-L-alaninate]	8.03 µM	0.569 µM	0.035 µM	–	–	–	–	–	–
C[C@H](NP(=O)(OC[C@@]1(C#N)O[C@@H](c2ccc3c(N)ncnn23)[C@H](O)[C@@H]1O)Oc1ccccc1)C(=O)OCC1CC1 (single isomer, unassigned) [Example 9]	–	–	–	> 50 µM	1.46 µM	0.324 µM	1.01 µM	0.097 µM	–
C[C@H](NP(=O)(OC[C@@]1(C#N)O[C@@H](c2ccc3c(N)ncnn23)[C@H](O)[C@@H]1O)Oc1ccccc1)C(=O)OCC1CC1 (single isomer, unassigned) [Example 10]	–	–	–	17.9 µM	2.79 µM	0.583 µM	0.191 µM	0.421 µM	–
CC(NP(=O)(OCC1(C#N)OC(c2ccc3c(N)ncnn23)C(O)C1O)Oc1ccccc1)C(=O)OCC1CCC(C(F)(F)F)CC1 (single isomer, unassigned) [Example 27]	–	–	–	82.2 µM	5.68 µM	3.16 µM	1.3 µM	0.018 µM	–
CC(NP(=O)(OCC1(C#N)OC(c2ccc3c(N)ncnn23)C(O)C1O)Oc1ccccc1)C(=O)OCC1CCC(C(F)(F)F)CC1 (single isomer, unassigned) [Example 28]	–	–	–	29.6 µM	2.16 µM	0.59 µM	0.238 µM	0.053 µM	–
COCCCOC(=O)[C@H](C)NP(=O)(OC[C@@]1(C#N)O[C@@H](c2ccc3c(N)ncnn23)[C@H](O)[C@@H]1O)Oc1ccccc1 (single isomer, unassigned) [Example 59]	–	–	–	56.5 µM	4.65 µM	–	–	0.111 µM	–
C[C@H](NP(=O)(OC[C@@]1(C#N)O[C@@H](c2ccc3c(N)ncnn23)[C@H](O)[C@@H]1O)Oc1ccccc1)C(=O)OC1CCCCCC1 (single isomer, unassigned) [Example 135]	–	1.39 µM	–	–	–	–	0.233 µM	–	EC50 (RSV A2; [6]): 0.066 µM
CCOC(=O)[C@H](C)NP(=O)(OC[C@@]1(C#N)O[C@@H](c2ccc3c(N)ncnn23)[C@H](O)[C@@H]1O)Oc1ccc(C(C)(C)C)cc1 (single isomer, unassigned) [Example 265]	–	0.39 µM	–	–	–	–	0.215 µM	–	–
C[C@H](NP(=O)(OC[C@@]1(C#N)O[C@@H](c2ccc3c(N)ncnn23)[C@H](O)[C@@H]1O)Oc1ccccc1)C(=O)OCc1ccccc1 (stereo partly drawn) [Example 37, benzyl ((((2R,3S,4R,5S)-5-(4-aminopyrrolo[2,1-f][1,2,4]triazin-7-yl)-2-cyano-3,4-dihydroxytetrahydrofuran-2-yl)methoxy) (phenoxy)phosphoryl)-L-alaninate]	6.7 µM	1.51 µM	0.136 µM	–	–	–	–	–	EC50 (HRV16; [4]): 0.329 µM; EC50 (RSV A2; [6]): 0.129 µM
C[C@H](N[P@@](=O)(OC[C@@]1(C#N)O[C@@H](c2ccc3c(N)ncnn23)[C@H](O)[C@@H]1O)Oc1ccccc1)C(=O)OCC1CCC1 [Example 119]	–	–	–	31.1 µM	4.28 µM	0.247 µM	0.539 µM	0.12 µM	–
C[C@H](N[P@](=O)(OC[C@@]1(C#N)O[C@@H](c2ccc3c(N)ncnn23)[C@H](O)[C@@H]1O)Oc1ccccc1)C(=O)OCC1CCC1 [Example 120]	–	–	–	7.46 µM	0.798 µM	0.295 µM	0.101 µM	0.104 µM	–
CCCCCCCCOC(=O)[C@H](C)NP(=O)(OC[C@@]1(C#N)O[C@@H](c2ccc3c(N)ncnn23)[C@H](O)[C@@H]1O)Oc1ccccc1 (stereo partly drawn) [Example 188, octyl ((((2R,3S,4R,5S)-5-(4-aminopyrrolo[2,1-f][1,2,4]triazin-7-yl)-2-cyano-3,4-dihydroxytetrahydrofuran-2-yl)methoxy)(phenoxy)phosphoryl)-L-alaninate]	21.4 µM	3.02 µM	0.186 µM	–	–	–	–	–	EC50 (HRV16; [4]): 0.429 µM; EC50 (RSV A2; [6]): 0.038 µM
CCC(CC)COC(=O)[C@H](C)OP(=O)(OC[C@@]1(C#N)O[C@@H](c2ccc3c(N)ncnn23)[C@H](O)[C@@H]1O)Oc1ccccc1 (stereo partly drawn) [Example 244, 2-ethylbutyl (2S)-2-(((((2R,3S,4R,5S)-5-(4-aminopyrrolo [2,1-f][1,2,4]triazin-7-yl)-2-cyano-3,4-dihydroxytetrahydrofuran-2-yl)methoxy)(phenoxy)phosphoryl)oxy)propanoate]	–	–	–	–	–	–	–	–	EC50 (DENV2 replicon; [3]): 36.7 µM; EC50 (HRV16; 96 h, read-out: HRV16 HELA EC50): 33.6 µM; EC50 (RSV strain A2; human respiratory syncytial virus, HEp-2, 96 h): 4.95 µM; EC50 (RSV A2; human respiratory syncytial virus, NHBE, 96 h): > 5 µM
C[C@H](NP(=O)(OC[C@@]1(C#N)O[C@@H](c2ccc3c(N)ncnn23)[C@H](O)[C@@H]1O)Oc1ccccc1)C(=O)OCC(CO)CO (stereo partly drawn) [Example 245, 3-hydroxy-2-(hydroxymethyl)propyl ((((2R,3S,4R,5S)-5-(4-aminopyrrolo[2,1-f][1,2,4]triazin-7-yl)-2-cyano-3,4-dihydroxytetrahydrofuran-2-yl)methoxy)(phenoxy)phosphoryl)-L-alaninate]	> 50 µM	–	3.79 µM	–	–	–	–	–	EC50 (HRV16; [4]): 29 µM; EC50 (RSV A2; [6]): > 5 µM
C[C@H](NP(=O)(OC[C@@]1(C#N)O[C@@H](c2ccc3c(N)ncnn23)[C@H](O)[C@@H]1O)Oc1ccccc1)C(=O)OCC1(C)CC1 (stereo partly drawn) [Example 257, (1-methylcyclopropyl)methyl ((((2R,3S,4R,5S)-5-(4-aminopyrrolo[2,1-f][1,2,4]triazin-7-yl)-2-cyano-3,4-dihydroxytetrahydrofuran-2-yl)methoxy)(phenoxy)phosphoryl)-L-alaninate]	5.48 µM	2.21 µM	0.029 µM	–	–	–	–	–	–
C[C@H](NP(=O)(OC[C@@]1(C#N)O[C@@H](c2ccc3c(N)ncnn23)[C@H](O)[C@@H]1O)Oc1ccccc1)C(=O)OCC(C)(C)C(F)(F)F (stereo partly drawn) [Example 260, 3,3,3-trifluoro-2,2-dimethylpropyl ((((2R,3S,4R,5S)-5-(4-aminopyrrolo[2,1-f][1,2,4]triazin-7-yl)-2-cyano-3,4-dihydroxytetrahydrofuran-2-yl)methoxy)(phenoxy)phosphoryl)-L-alaninate]	9.95 µM	0.682 µM	0.066 µM	–	–	–	–	–	–
